This is an account of results in patent US5635593A (priority 1995, dated 1997).

Peptide text beside a SMILES is read from it.

In the experiment the test system is blood pressure responses to BK. It is filed as in vivo. The following applies: anaesthetized rat, dose response curve n=10.

As to `NC(N)=NCCC[C@H](NC(=O)[C@H](Cc1ccccc1)NC(=O)[C@@H]1CCCN1C(=O)[C@H](CO)NC(=O)[C@H](Cc1ccccc1)NC(=O)CNC(=O)[C@@H]1CCCN1C(=O)[C@@H]1CCCN1C(=O)[C@@H](N)CCCN=C(N)N)C(=O)O` [BK, Arg^1 -Pro^2 -Pro^3 -Gly^4 -Phe^5 -Ser^6 -Pro^7 -Phe^8 -Arg^9] (H-RPPGFSPFR-OH), the “ED50 of BK, blood pressure” value came to 0.4 nmol.
